Source: patent publication US4542169A, “Biomedical devices containing isothiazolones to control bacteria growth” (Rohm and Haas Company, priority 1983, dated 1985)
Values after ≈ are worked out from the molar mass of the structure shown.

How the values were obtained:
[1] = system: Staphylococcus aureus; experiment: Minimum inhibitory concentration, bacteriostatic activity; format: cell-based; settings: Table III: Active Ingredient MIC
[2] = system: Echerichia coli (E.c.); experiment: Zone of inhibition, polyvinyl chloride film discs on inoculated agar; format: cell-based; settings: PVC film
Method: (§1) In a two-liter, three-necked, round-bottom, flask equipped with a mechanical stirrer was placed 100 g of polyvinyl chloride, 590 g of reagent grade tetrahydrofuran, and 40.0 g of dioctylphthalate. This was stirred with gentle heating (35°-40° C.) for two hours to completely dissolve the polyvinyl chloride. Then, a barium/calcium salt of a fatty acid (3.5 g), a phosphite chelating agent (1.5 g), stearic Acid (0.25 g) and epoxidized soy bean oil (7.5 g), were mixed with 21 g of tetrahydrofuran and added to the polyvinyl chloride solution. After stirring at room temperature for 30 minutes, the solution was ready for use.
(§2) Films containing the isothiazolones were cast by first preparing a 0.5 weight percent polyvinyl chloride solution by adding the isothiazolone to the polyvinyl chloride solution. Then, portions of the 0.5% solution were diluted to 0.1 and 0.05%. The films were drawn down on 12"×12" glass plates using a 50 mil-3" wide coating bar and the films were allowed to air dry for 48 hours.
(§3) The films were cut into 1.25 cm discs and placed in agar plates inoculated with Staphlococcus aureus (S.a) or Echerichia coli (E.c.).

[3] = system: Staphlococcus aureus (S.a); experiment: as above; format: cell-based; settings: PVC film
Method: as §1, §2, §3

[4] = system: Aerobasidium pullulans (A.p); experiment: Zone of inhibition, polyvinyl chloride film; format: cell-based; settings: PVC film
[5] = system: Escherichia coli; experiment: Minimum inhibitory concentration, bacteriostatic activity; format: cell-based; settings: Table III: Active Ingredient MIC
[6] = system: Aerobasidium pullulans (A.p); experiment: Growth of fungus on polyvinyl chloride film; format: cell-based; parameters: key: 0: zero (no growth); 5: five (heavy growth); settings: PVC film
Method: as §1, §2
(§4) In addition to zones of inhibition, the films were observed by growth of fungus on the film and rated from zero (no growth) to five (heavy growth).

[7] = system: Aspergillis niger (A.n.); experiment: Growth of fungus on polyvinyl chloride film; format: cell-based; parameters: key: 0: zero (no growth); 5: five (heavy growth); settings: PVC film
Method: as §1, §2, §4

[8] = system: Aspergillis niger (A.n.); experiment: Zone of inhibition, polyvinyl chloride film; format: cell-based; settings: PVC film
[9] = system: S.a.; experiment: Zone of inhibition, silicone rubber film discs on inoculated agar; format: cell-based, Staphlococcus aureus; settings: silicone rubber film, S.a.
Source text: as §3
(§5) The films were cut into discs and tested as in example one against S.a. and E.c.

[10] = system: Aureobasidium pullulans; experiment: Minimum inhibitory concentration, fungistatic activity; format: cell-based; settings: Table III: Active Ingredient MIC
[11] = system: E.c.; experiment: Zone of inhibition, silicone rubber film discs on inoculated agar; format: cell-based, Echerichia coli; settings: silicone rubber film
Source text: as §3, §5

[12] = system: Pseudomonas aeruginosa; experiment: Minimum inhibitory concentration, bacteriostatic activity; format: cell-based; settings: Table III: Active Ingredient MIC
[13] = system: Candida albicans (yeast); experiment: Minimum inhibitory concentration, fungistatic activity; format: cell-based; settings: Table III: Active Ingredient MIC
[14] = system: Aspergillus niger; experiment: as above; format: cell-based; settings: Table III: Active Ingredient MIC
[15] = Solubility in H2O; format: physicochemical; settings: water

SMILES | MIC [1] | Zone of Inhibition ([2]; 0.05%) | Zone of Inhibition ([2]; 0.1%) | Zone of Inhibition ([2]; 0.5%) | Zone of Inhibition ([3]; 0.05%) | Zone of Inhibition ([3]; 0.1%) | Zone of Inhibition ([3]; 0.5%) | Zone of Inhibition ([4]; 0.05%) | Zone of Inhibition ([4]; 0.1%) | Zone of Inhibition ([4]; 0.5%) | Growth on Film ([6]; 0.05%) | Growth on Film ([6]; 0.1%) | Growth on Film ([6]; 0.5%) | Growth on Film ([7]; 0.05%) | Growth on Film ([7]; 0.1%) | Growth on Film ([7]; 0.5%) | Zone of Inhibition ([8]; 0.05%) | Zone of Inhibition ([8]; 0.1%) | Zone of Inhibition ([8]; 0.5%) | solubility [15] | further results
CCCCCCCCn1sc(Cl)c(Cl)c1=O [Compound 5, 4,5-Dichloro-N--n-octyl-isothiazolin-3-one] | 4 µg/mL (≈ 14.2 µM) | 0 mm | 0 mm | 0 mm | 0 mm | 0.3 mm | 3.3 mm | 0 mm | 0 mm | 0 mm | 5 | 3 | 1 | 5 | 3 | 0 | 0 mm | 0 mm | 0 mm |  | MIC [5]: 16 µg/mL (≈ 56.7 µM); Zone of Inhibition ([9]; Conc. 10): 0 mm; Zone of Inhibition ([9]; Conc. 100): 1.8 mm; Zone of Inhibition ([9]; Conc. 1000): 8.8 mm; MIC [10]: 5 µg/mL (≈ 17.7 µM); Zone of Inhibition ([11]; Conc. 10): 0 mm; Zone of Inhibition ([11]; Conc. 100): 0 mm; Zone of Inhibition ([11]; Conc. 1000): 0.8 mm; MIC [12]: 16 µg/mL (≈ 56.7 µM); MIC [13]: 5 µg/mL (≈ 17.7 µM); MIC [14]: 9 µg/mL (≈ 31.9 µM)
O=c1c(Cl)c(Cl)sn1CCc1ccccc1 [Compound 3, 4,5-Dichloro-N-- 2-phenethyl-isothiazolin-3-one] |  | 0 mm | 0 mm | 1.8 mm | 1.8 mm | 4.3 mm | 10.8 mm | 0 mm | 0 mm | 3.8 mm | 2 | 0 | 0 | 1 | 0 | 0 | 0 mm | 0 mm | 4.8 mm | 96 µg/mL (≈ 350 µM) | 
CCCCCCCn1sc(Cl)c(Cl)c1=O [Compound 6, 4,5-Dichloro-N--n-heptyl-isothiazolin-3-one] |  | 0 mm | 0 mm | 0 mm | 0 mm | 1.3 mm | 4.3 mm | 3 mm | 1 mm | 0 mm | 3 | 2 | 0 | 0 | 0 | 0 | 0 mm | 0 mm | 0 mm | 25 µg/mL (≈ 93.2 µM) | 
CCCCCCn1sc(Cl)c(Cl)c1=O [Compound 4, 4,5-Dichloro-N--n-hexyl-isothiazolin-3-one] |  | 0 mm | 0 mm | 0.8 mm | 1.3 mm | 2.3 mm | 9.3 mm | 0 mm | 0 mm | 2.8 mm | 3 | 0 | 0 | 0 | 0 | 0 | 0 mm | 0 mm | 3.8 mm | 143 µg/mL (≈ 563 µM) | 
O=c1cc(Cl)sn1Cc1ccc(Cl)cc1 [5-chloro-2-(p-chlorobenzyl)-4-isothiazolin-3-one] | 4 µg/mL (≈ 15.4 µM) |  |  |  |  |  |  |  |  |  |  |  |  |  |  |  |  |  |  |  | MIC [5]: 8 µg/mL (≈ 30.8 µM); MIC [10]: 8 µg/mL (≈ 30.8 µM); MIC [12]: 8 µg/mL (≈ 30.8 µM); MIC [13]: 4 µg/mL (≈ 15.4 µM); MIC [14]: 4 µg/mL (≈ 15.4 µM)
